This is an account of results in the supplement of paper PMC10307832.

Holding throughout (assay): relative viability (nuclei count vs DMSO), 5 days (fraction); higher = more cells survive
Compound in assay [1]: CC1CC(=O)N(C2=CN=C(N=C2N1C3CCCC3)NC4=C(C=C(C=C4)C(=O)NC5CCN(CC5)C)OC)C [NPK76-II-72-1] + O=C(c1cc(Cc2n[nH]c(=O)c3ccccc23)ccc1F)N1CCN(C(=O)C2CC2)CC1 [Olaparib] (partner 8 µM)
Summed up:
(§1)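 After 5 days of treatment, lung cancer cells in 1536-well plates were fixed and stained in a single step (final 0.05% Triton X-100, 1% formaldehyde, 1 ug/ml Hoechst) and their nuclei counted on 4× images. Treatment had been applied by pin tool the day after seeding as one drug alone or as a fixed anchor-drug dose with five library-drug doses (not always all listed) in √10 steps. Relative viability is the nuclei count of treated wells divided by that of vehicle wells, and values are medians of duplicate plates.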

Compound in assay [2]: CC[C@@H]1C(=O)N(C)c2cnc(Nc3ccc(C(=O)NC4CCN(C)CC4)cc3OC)nc2N1C1CCCC1 [BI-2536] + COc1cccc2cc(-c3nc([C@H]4CC[C@H](C(=O)O)CC4)n4ncnc(N)c34)[nH]c12 [OSI-027] (partner 0.5 µM)
Summed up: as §1

Compound in assay [3]: CC[C@@H]1C(=O)N(C)c2cnc(Nc3ccc(C(=O)NC4CCN(C)CC4)cc3OC)nc2N1C1CCCC1 [BI-2536] + CC(=O)Nc1cccc(-n2c(=O)n(C3CC3)c(=O)c3c(Nc4ccc(I)cc4F)n(C)c(=O)c(C)c32)c1 [Trametinib] (partner 0.02 µM)
In outline:
as §1

Compound in assay [4]: CC[C@@H]1C(=O)N(C)c2cnc(Nc3ccc(C(=O)NC4CCN(C)CC4)cc3OC)nc2N1C1CCCC1 [BI-2536] + C[C@@H](Oc1cc(-c2cnn(C3CCNCC3)c2)cnc1N)c1c(Cl)ccc(F)c1Cl [Crizotinib] (partner 1 µM)
Summed up:
as §1

As for NCI-H322M, the relative viability was found to be 0.582 in assay [1] (first compound 0.01 µM); 0.828 in assay [1] (first compound 0.03162 µM); 0.623 in assay [1] (first compound 0.1 µM); 0.878 in assay [1] (first compound 0.3162 µM); 0.791 in assay [1] (first compound 1 µM); 0.52 in assay [2] (first compound 0.01 µM). The relative viability in assay [2] (first compound 0.03162 µM) was determined as 0.52; in assay [2] (first compound 0.1 µM), 0.37; in assay [2] (first compound 0.3162 µM), 0.411; in assay [2] (first compound 1 µM), 0.305; in assay [3] (first compound 0.01 µM), 0.535; in assay [3] (first compound 0.03162 µM), 0.473. Moreover, the relative viability in assay [3] (first compound 0.1 µM) is 0.564; in assay [3] (first compound 0.3162 µM), 0.435; in assay [3] (first compound 1 µM) it was 0.361; in assay [4] (first compound 0.01 µM), 0.992; in assay [4] (first compound 0.03162 µM) it was 0.721; in assay [4] (first compound 0.1 µM) it was 0.92. Also, the relative viability in assay [4] (first compound 0.3162 µM) came to 0.346; in assay [4] (first compound 1 µM) it was 0.308.
For the cell line NCI-H2170, the relative viability in assay [1] (first compound 0.01 µM) worked out at 0.57; in assay [1] (first compound 0.03162 µM), 0.572; in assay [1] (first compound 0.1 µM), 0.666; in assay [1] (first compound 0.3162 µM) it was 0.381; in assay [1] (first compound 1 µM), 0.656; in assay [2] (first compound 0.01 µM) it was 0.762. Also, the relative viability in assay [2] (first compound 0.03162 µM) is 0.757; in assay [2] (first compound 0.1 µM), 0.285; in assay [2] (first compound 0.3162 µM), 0.172; in assay [2] (first compound 1 µM), 0.209; in assay [3] (first compound 0.01 µM) it was 0.945; in assay [3] (first compound 0.03162 µM), 0.916. In addition, the relative viability in assay [3] (first compound 0.1 µM) amounted to 0.775; in assay [3] (first compound 0.3162 µM), 0.137; in assay [3] (first compound 1 µM) it was 0.176; in assay [4] (first compound 0.01 µM) it was 1.09; in assay [4] (first compound 0.03162 µM) it was 1.13; in assay [4] (first compound 0.1 µM), 0.611. For the same cell line, the relative viability in assay [4] (first compound 0.3162 µM) was found to be 0.244; in assay [4] (first compound 1 µM), 0.288.
For NCI-H358, the relative viability in assay [1] (first compound 0.01 µM) was 0.58; in assay [1] (first compound 0.03162 µM), 0.665; in assay [1] (first compound 0.1 µM), 0.598; in assay [1] (first compound 1 µM) it was 0.686; in assay [2] (first compound 0.01 µM), 0.758; in assay [2] (first compound 0.03162 µM), 0.477. The relative viability in assay [2] (first compound 0.1 µM) stood at 0.0848; in assay [2] (first compound 0.3162 µM), 0.0717; in assay [2] (first compound 1 µM) it was 0.0809; in assay [3] (first compound 0.01 µM) it was 0.146; in assay [3] (first compound 0.03162 µM) it was 0.126; in assay [3] (first compound 0.1 µM) it was 0.11. Besides, the relative viability came to 0.0815 in assay [3] (first compound 0.3162 µM); 0.0734 in assay [3] (first compound 1 µM); 0.446 in assay [4] (first compound 0.01 µM); 0.259 in assay [4] (first compound 0.03162 µM); 0.22 in assay [4] (first compound 0.1 µM); 0.173 in assay [4] (first compound 0.3162 µM). Besides, in assay [4] (first compound 1 µM), the relative viability turned out to be 0.139.
Consider NCI-H838, for which the relative viability in assay [1] (first compound 0.01 µM) is 0.712; in assay [1] (first compound 0.03162 µM) it was 0.846; in assay [1] (first compound 0.1 µM), 0.768; in assay [1] (first compound 0.3162 µM), 0.738; in assay [1] (first compound 1 µM), 0.805; in assay [2] (first compound 0.01 µM), 0.386. In addition, the relative viability was 0.444 in assay [2] (first compound 0.03162 µM); 0.393 in assay [2] (first compound 0.1 µM); 0.146 in assay [2] (first compound 0.3162 µM); 0.149 in assay [2] (first compound 1 µM); 0.532 in assay [3] (first compound 0.01 µM); 0.625 in assay [3] (first compound 0.03162 µM). Moreover, the relative viability in assay [3] (first compound 0.1 µM) was found to be 0.478; in assay [3] (first compound 0.3162 µM), 0.081; in assay [3] (first compound 1 µM), 0.0789; in assay [4] (first compound 0.01 µM), 0.886; in assay [4] (first compound 0.03162 µM), 0.711; in assay [4] (first compound 0.1 µM), 0.232. Also, the values for the relative viability in assay [4] (first compound 0.3162 µM) and in assay [4] (first compound 1 µM) were 0.156 and 0.114, respectively.
In the case of CAL-12T, the relative viability in assay [1] (first compound 0.01 µM) came to 0.724; in assay [1] (first compound 0.03162 µM) it was 0.829; in assay [1] (first compound 0.1 µM), 0.726; in assay [1] (first compound 0.3162 µM), 0.741; in assay [1] (first compound 1 µM), 0.825; in assay [2] (first compound 0.01 µM) it was 0.646. Also, the relative viability in assay [2] (first compound 0.03162 µM) came out at 0.531; in assay [2] (first compound 0.1 µM), 0.188; in assay [2] (first compound 0.3162 µM), 0.144; in assay [2] (first compound 1 µM), 0.191; in assay [3] (first compound 0.01 µM), 0.344; in assay [3] (first compound 0.03162 µM) it was 0.338. Besides, the relative viability in assay [3] (first compound 0.1 µM) is 0.383; in assay [3] (first compound 0.3162 µM) it was 0.147; in assay [3] (first compound 1 µM) it was 0.157; in assay [4] (first compound 0.01 µM), 0.532; in assay [4] (first compound 0.03162 µM), 0.295; in assay [4] (first compound 0.1 µM) it was 0.409. The relative viability in assay [4] (first compound 0.3162 µM) came to 0.128; in assay [4] (first compound 1 µM), 0.155.
